Values quoted from earlier work as cited in patent US12527803B2, “Testosterone dodecanoate compositions and methods” (priority 2023, dated 2026).

What was measured:
[1] = test system: Vesicular stomatitis virus, Herpes simplex virus, Visna virus, Respiratory syncytial virus, and Junin virus
[2] = test system: Candida albicans, Aspergillus niger, and Fusarium spp
[3] = test system: normotensive and hypertensive rats
[4] = test system: prostatic hyperplasia induced by testosterone; conditions: rats
[5] = test system: Propionibacterium acnes, Staphylococcus aureus, Eschericia coli, Streptococci, Mycobacterium tuberculosis, Clostridium difficile and other bacteria
[6] = test system: Enterhemorrhagic E. Coli (EHEC) biofilms; conditions: p<0.001 for lauric acid

## CCCCCCCCCCCC(=O)O [lauric acid]
[1]
  Antiviral benefit: antiviral benefit
[2]
  Antifungal benefit: antifungal benefit
[3]; normotensive and hypertensive rats
  Effect on BP and heart rate: reduce the BP and heart rate
[3]; rat, in vivo
  Effect on HDL levels: increase HDL levels
[4]
  Effect on prostatic hyperplasia induced by testosterone: prevent the prostatic hyperplasia induced by testosterone
[5]
  Antibacterial benefit: antibacterial benefit
[6]
  Repression of EHEC biofilms versus control: repressed EHEC biofilms significantly differently than the control

## CCCCCCCCCCC(=O)O [undecanoic acid]
[6]
  Repression of EHEC biofilms versus control: did not
